# Literature values, collected in patent US8028928B2, “Spreader apparatus for sand based formulations” (priority 2007, dated 2011).
# Tested on: S. homoeocarpa
# Conditions: bent grass blend Cato:Crenshaw (50:50); high disease pressure
smiles,measurement,value
"CSC(=O)c1cccc2nnsc12 [ASM, acibenzolar-5-methyl]",Reduction of number of S. homoeocarpa infection centers,38%
